Measurements as given in patent US7998983B2, “Substituted isoxazoles as fungicides” (Syngenta Limited, priority 2004, dated 2011).

Assays:
[1] = test system: soft red winter wheat cultivar Sisson; test: Cereal field trial, yield; format: in vivo; details: highest rate of Compound 4 (421 g a.i./ha)
Protocol: (§1) A field trial of Compound 4 was conducted on soft red winter wheat cultivar Sisson. Very dry weather gave rise to a low natural incidence of leaf rust (Puccinia recondita: PUCCRT) late in the trial. Compound 4 was applied as a 9.5% active ingredient (weight/weight) emulsifiable concentrate of the following formula (each weight/weight): 9.5% Compound 4, 9.5% m-Pyrol, 65% Surfadone LP-100, 6% Surfadone LP-300, 5% Toximul 3463F, and 5% Toximul 3464F. Rates of Compound 4 application were as follows (grams active ingredient per hectare: g a.i./ha): 140, 280 and 421.

[2] = test system: Sclerotinia homoeocarpa (common name: dollar spot); test: Turf trial, dollar spot on creeping bentgrass; format: in vivo; details: creeping bentgrass plots; Compound 4 as 25% wetable powder at 2.2, 4.4, 8.8 g a.i. per 1000 square feet; mean disease <3.0% acceptable
From the text: Penncross during the spring.

[3] = test system: leaf rust (Puccinia recondita: PUCCRT); test: Cereal field trial, leaf rust on wheat; format: in vivo; details: winter wheat field trial; 9.5% emulsifiable concentrate; 140, 280 and 421 g a.i./ha; low natural incidence
Protocol: as §1

[4] = test system: creeping bentgrass cv. Penncross; test: Turf trial, turfgrass quality and phytotoxicity; details: creeping bentgrass plots inoculated with S. homoeocarpa; ratings >6.0 acceptable
Protocol: A fungicide trial was conducted on a 15-yr-old sward of creeping bentgrass cv. Penncross during the spring. The turfgrass was maintained using cultural practices similar to those used in maintenance of bentgrass golf greens in the southern United States. Treatments were arranged as plots (0.5×1.0 m) in a randomized complete block design with four replications. […] All other fungicides were applied according to their labels (Banner MAXX 1.3ME and Insignia 20WG). The turfgrass was inoculated with autoclaved tall fescue seed infested with Sclerotinia homoeocarpa (common name: dollar spot) six hours after application of the initial preventive treatments. The plots received approximately 0.24 inches of irrigation water daily at 1700 hour to ensure nightly foliar wetness for infection. The Horsfall-Barratt rating scale was used to visually estimate disease severity at approximately 7-day intervals from the initial application date. Turfgrass quality was assessed using a 0-9 scale where 0=a necrotic, thin foliar canopy and 9=a dark green, dense foliar canopy. Disease and quality values were subjected to analysis of variance and means were statistically separated using the Scott-Knott cluster analysis procedure.

In the case of `OC(c1cccnc1)c1c(-c2ccc(Cl)cc2Cl)noc1-c1cccc(Cl)c1` (stereo not shown) [Compound 4, 5-(3-Chlorophenyl)-3-(2,4-dichlorophenyl)-4-[(3-pyridyl)hydroxymethyl]-isoxazole], the Yield enhancement [1] is reported as “Yield enhancement was observed”, the “Dollar spot disease severity / control (Horsfall-Barratt rating)” value [2] is reported as “effective control on dollar spot during most of the trial period” and the “Control of leaf rust incidence” value [3] is reported as “good control of the rust incidence”. The “Turfgrass quality (0-9 scale)” value [4] was “Highest quality ratings”.
